Results: PubChem BioAssay AID2060496 (Molecular Pharmacology Branch, DTP, NCI, 2025)

System: 276233-004-R-J1-PDC complex spheroid viability
Assay: Anticancer human tumor 276233-004-R-J1-PDC patient-derived colon adenocarcinoma cell line growth inhibition [GQUAD]
Conditions: for IC50: curve of first compound; for viability, T/C: stronger effect = lower value; active = viability on the fitted dose curve at most 10% of control; inactive = the rest
Outline: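 Tumor cells were grown as complex spheroids with HUVEC endothelial cells and mesenchymal stem cells as stroma. G-quadruplex stabilizers were combined with targeted agents over half-log dilutions from near the clinical Cmax, or from 10 microM.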

[1] = second compound 0.0316 µM, first compound 0.0316 µM
[2] = second compound 0.0316 µM, first compound 0.316 µM
[3] = second compound 0.1 µM, first compound 0.0316 µM
[4] = second compound 0.1 µM, first compound 0.316 µM
[5] = second compound 0.316 µM, first compound 0.0316 µM
[6] = second compound 0.316 µM, first compound 0.316 µM
[7] = second compound 1 µM, first compound 0.0316 µM
[8] = second compound 1 µM, first compound 0.316 µM
[9] = second compound 3.16 µM, first compound 0.0316 µM
[10] = second compound 3.16 µM, first compound 0.316 µM
[11] = second compound 10 µM, first compound 0.0316 µM
[12] = second compound 10 µM, first compound 0.316 µM
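Also: spheroids exposed to drugs for seven days.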
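For viability, T/C in this document: 100% = DMSO vehicle control viability.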

CC(=O)O[C@H]1C(=O)[C@@]2(C)[C@H]([C@H](OC(=O)c3ccccc3)[C@]3(O)C[C@H](OC(=O)[C@H](O)[C@@H](NC(=O)c4ccccc4)c4ccccc4)C(C)=C1C3(C)C)[C@]1(OC(C)=O)CO[C@@H]1C[C@@H]2O + Cc1[nH]c2ccc(F)cc2c1-c1nc2c3cccnc3c3ncccc3c2[nH]1
> 10000 nM: IC50 (second compound 0.0316 µM) | IC50 (second compound 0.1 µM) | IC50 (second compound 0.316 µM)
inactive: viability, T/C [1] 82.4% | viability, T/C (second compound 0.0316 µM, first compound 0.1 µM) 72% | viability, T/C [2] 68.8% | viability, T/C (second compound 0.0316 µM, first compound 1 µM) 81.9% | viability, T/C (second compound 0.0316 µM, first compound 3.16 µM) 100% | viability, T/C (second compound 0.0316 µM, first compound 10 µM) 70.9% | viability, T/C [3] 66.3% | viability, T/C (second compound 0.1 µM, first compound 0.1 µM) 77.2% | viability, T/C [4] 68.7% | viability, T/C (second compound 0.1 µM, first compound 1 µM) 77.3% | viability, T/C (second compound 0.1 µM, first compound 3.16 µM) 64.2% | viability, T/C (second compound 0.1 µM, first compound 10 µM) 64.9% | viability, T/C [5] 72.6% | viability, T/C (second compound 0.316 µM, first compound 0.1 µM) 65.4% | viability, T/C [6] 57.1% | viability, T/C (second compound 0.316 µM, first compound 1 µM) 53.5% | viability, T/C (second compound 0.316 µM, first compound 3.16 µM) 62.4% | viability, T/C (second compound 0.316 µM, first compound 10 µM) 47.8% | viability, T/C [7] 49.7% | viability, T/C (second compound 1 µM, first compound 0.1 µM) 57% | viability, T/C [8] 55.4% | viability, T/C (second compound 1 µM, first compound 1 µM) 39.2% | viability, T/C (second compound 1 µM, first compound 3.16 µM) 45.8% | viability, T/C (second compound 1 µM, first compound 10 µM) 51.8% | viability, T/C [9] 20.4% | viability, T/C (second compound 3.16 µM, first compound 0.1 µM) 14.5% | viability, T/C [10] 15.4% | viability, T/C (second compound 3.16 µM, first compound 1 µM) 12.3% | viability, T/C (second compound 3.16 µM, first compound 3.16 µM) 13.6% | viability, T/C (second compound 3.16 µM, first compound 10 µM) 12.1% | viability, T/C [11] 42.2% | viability, T/C (second compound 10 µM, first compound 0.1 µM) 40.1% | viability, T/C [12] 38.5% | viability, T/C (second compound 10 µM, first compound 1 µM) 28.1% | viability, T/C (second compound 10 µM, first compound 3.16 µM) 30.4% | viability, T/C (second compound 10 µM, first compound 10 µM) 33.5%
< 31.6 nM: IC50 (second compound 3.16 µM) | IC50 (second compound 10 µM)
341 nM: IC50 (second compound 1 µM)

CC[C@@]1(O)C(=O)OCc2c1cc1n(c2=O)Cc2cc3c(CN(C)C)c(O)ccc3nc2-1 + Cc1[nH]c2ccc(F)cc2c1-c1nc2c3cccnc3c3ncccc3c2[nH]1
inactive: viability, T/C (second compound 0.0316 µM, first compound 0.000999 µM) 83.1% | viability, T/C (second compound 0.0316 µM, first compound 0.00316 µM) 76.6% | viability, T/C (second compound 0.0316 µM, first compound 0.00999 µM) 80.8% | viability, T/C [1] 89.2% | viability, T/C (second compound 0.0316 µM, first compound 0.0999 µM) 92% | viability, T/C [2] 91.5% | viability, T/C (second compound 0.1 µM, first compound 0.000999 µM) 93.4% | viability, T/C (second compound 0.1 µM, first compound 0.00316 µM) 102% | viability, T/C (second compound 0.1 µM, first compound 0.00999 µM) 102% | viability, T/C [3] 87% | viability, T/C (second compound 0.1 µM, first compound 0.0999 µM) 88.2% | viability, T/C [4] 96.9% | viability, T/C (second compound 0.316 µM, first compound 0.000999 µM) 78.7% | viability, T/C (second compound 0.316 µM, first compound 0.00316 µM) 88.4% | viability, T/C (second compound 0.316 µM, first compound 0.00999 µM) 82.7% | viability, T/C [5] 89.6% | viability, T/C (second compound 0.316 µM, first compound 0.0999 µM) 99.6% | viability, T/C [6] 82.8% | viability, T/C (second compound 1 µM, first compound 0.000999 µM) 71.2% | viability, T/C (second compound 1 µM, first compound 0.00316 µM) 78.4% | viability, T/C (second compound 1 µM, first compound 0.00999 µM) 76.2% | viability, T/C [7] 67.9% | viability, T/C (second compound 1 µM, first compound 0.0999 µM) 58.2% | viability, T/C [8] 77.7% | viability, T/C (second compound 3.16 µM, first compound 0.000999 µM) 48.4% | viability, T/C (second compound 3.16 µM, first compound 0.00316 µM) 54.4% | viability, T/C (second compound 3.16 µM, first compound 0.00999 µM) 48.5% | viability, T/C [9] 51.6% | viability, T/C (second compound 3.16 µM, first compound 0.0999 µM) 61.9% | viability, T/C [10] 58.3% | viability, T/C (second compound 10 µM, first compound 0.000999 µM) 46% | viability, T/C (second compound 10 µM, first compound 0.00316 µM) 40.5% | viability, T/C (second compound 10 µM, first compound 0.00999 µM) 53.9% | viability, T/C [11] 58% | viability, T/C (second compound 10 µM, first compound 0.0999 µM) 50.7% | viability, T/C [12] 46.7%
> 316 nM: IC50 (second compound 0.0316 µM) | IC50 (second compound 0.1 µM) | IC50 (second compound 0.316 µM) | IC50 (second compound 1 µM)
< 0.999 nM: IC50 (second compound 3.16 µM) | IC50 (second compound 10 µM)
